How the values were obtained:
Rattus norvegicus [1] = organism: Rattus norvegicus; assay: Testosterone Eurofins-Panlabs radioligand binding assay; parameters: ligand concentration 1.5 nM; conditions: Compound concentration 10.0 uM
[2] = target: T1, D(4) dopamine receptor (Homo sapiens) (UniProt P21917); assay: Inhibition of Dopamine D4.2 at 10 µM in the Eurofins-Panlabs radioligand binding assay (Eurofins_assay_219900); parameters: ligand concentration 0.5 nM; conditions: Compound concentration 10.0 uM
T1 sequence (whole entry): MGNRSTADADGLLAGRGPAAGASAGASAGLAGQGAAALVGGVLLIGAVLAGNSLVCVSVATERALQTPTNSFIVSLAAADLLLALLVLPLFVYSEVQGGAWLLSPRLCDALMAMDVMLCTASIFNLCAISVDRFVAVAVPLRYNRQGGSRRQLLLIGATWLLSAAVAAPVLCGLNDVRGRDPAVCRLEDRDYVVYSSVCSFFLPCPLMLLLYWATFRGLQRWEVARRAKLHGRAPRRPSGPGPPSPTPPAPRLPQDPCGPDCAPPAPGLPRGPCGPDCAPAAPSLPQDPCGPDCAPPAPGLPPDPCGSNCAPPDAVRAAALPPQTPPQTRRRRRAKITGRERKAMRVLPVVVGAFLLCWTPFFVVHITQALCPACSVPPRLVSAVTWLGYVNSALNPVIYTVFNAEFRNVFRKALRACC

Rattus norvegicus [3] = organism: Rattus norvegicus; assay: Inhibition of Glutamate, NMDA, Phencyclidine at 10 µM in the Eurofins-Panlabs radioligand binding assay (Eurofins_assay_233000); type: protein-complex assay; conditions: Compound concentration 10.0 uM
[4] = target: voltage-gated sodium channel, site 2 (Rattus norvegicus, UniProt F1LQQ7+O08562+O88420+O88457+P04774+P04775+P08104+P15389+P15390+Q62968); assay: Inhibition of Sodium Channel, Site 2 at 10 µM in the Eurofins-Panlabs radioligand binding assay (Eurofins_assay_279510); type: protein assay; parameters: ligand concentration 5 nM, non-specific ligand with concentration 100 µM Veratridine, incubation time 60 min, incubation temperature 37 °C; conditions: male, Wistar, rat whole brain (except cerebellum) membranes, probe [3H] Batrachotoxinin, 5 nM, compound concentration 10 uM
[5] = target: 5-hydroxytryptamine receptor 4 (Homo sapiens) (UniProt Q13639); assay: Inhibition of Serotonin (5-Hydroxytryptamine) 5-HT4 at 10 µM in the Eurofins-Panlabs radioligand binding assay (Eurofins_assay_272000); conditions: Cavia porcellus; Compound concentration 10.0 uM
[6] = target: Substance-K receptor (Homo sapiens) (UniProt P21452); assay: Inhibition of Tachykinin NK2 at 10 µM in the Eurofins-Panlabs radioligand binding assay (Eurofins_assay_255600); parameters: ligand concentration 0.5 nM; conditions: Compound concentration 10.0 uM
Sequence of Substance-K receptor (Homo sapiens) (P21452 whole entry): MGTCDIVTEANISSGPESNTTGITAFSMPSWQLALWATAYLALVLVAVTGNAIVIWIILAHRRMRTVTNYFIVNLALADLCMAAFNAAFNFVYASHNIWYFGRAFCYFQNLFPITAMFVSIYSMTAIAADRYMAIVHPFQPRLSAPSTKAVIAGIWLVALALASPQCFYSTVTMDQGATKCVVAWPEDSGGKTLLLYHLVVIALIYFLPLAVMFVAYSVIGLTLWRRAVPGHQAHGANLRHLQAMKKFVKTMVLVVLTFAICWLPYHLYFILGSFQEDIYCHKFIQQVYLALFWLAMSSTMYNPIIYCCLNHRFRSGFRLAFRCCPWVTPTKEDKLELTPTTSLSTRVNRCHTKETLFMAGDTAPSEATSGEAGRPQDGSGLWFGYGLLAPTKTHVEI

[7] = target: Substance-P receptor (Homo sapiens) (UniProt P25103); assay: Tachykinin NK1 Eurofins-Panlabs radioligand binding assay; conditions: Compound concentration 10.0 uM
[8] = target: Progesterone receptor (Homo sapiens) (UniProt P06401); assay: Inhibition of Progesterone PR-B at 10 µM in the Eurofins-Panlabs radioligand binding assay (Eurofins_assay_268020); parameters: ligand concentration 1.4 nM; conditions: Compound concentration 10.0 uM
Rattus norvegicus [9] = organism: Rattus norvegicus; assay: Adrenergic α2, Non-selective Eurofins-Panlabs radioligand binding assay; type: protein assay; conditions: Compound concentration 10.0 uM
[10] = target: Type-2 angiotensin II receptor (Homo sapiens) (UniProt P50052); assay: Angiotensin AT2 Eurofins-Panlabs radioligand binding assay; type: protein assay; conditions: Compound concentration 10.0 uM
Sequence of Type-2 angiotensin II receptor (Homo sapiens) (P50052 whole entry): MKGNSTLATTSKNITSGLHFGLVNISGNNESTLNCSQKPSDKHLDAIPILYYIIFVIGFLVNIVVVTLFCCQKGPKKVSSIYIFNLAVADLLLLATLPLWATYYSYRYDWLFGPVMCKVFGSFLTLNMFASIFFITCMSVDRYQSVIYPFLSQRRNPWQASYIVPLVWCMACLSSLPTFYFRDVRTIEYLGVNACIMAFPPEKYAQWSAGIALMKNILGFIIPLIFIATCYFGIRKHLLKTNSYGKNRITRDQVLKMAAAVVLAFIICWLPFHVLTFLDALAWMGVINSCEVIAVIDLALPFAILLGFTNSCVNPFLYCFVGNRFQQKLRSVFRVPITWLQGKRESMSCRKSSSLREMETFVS

[11] = target: Vasopressin V1a receptor (Homo sapiens) (UniProt P37288); assay: Vasopressin V1A Eurofins-Panlabs radioligand binding assay; parameters: ligand concentration 0.01 nM; conditions: Compound concentration 10.0 uM
[12] = target: Glucocorticoid receptor (Homo sapiens) (UniProt P04150); assay: Glucocorticoid Eurofins-Panlabs radioligand binding assay; conditions: Compound concentration 10.0 uM
Sequence of Glucocorticoid receptor (Homo sapiens) (P04150 whole entry): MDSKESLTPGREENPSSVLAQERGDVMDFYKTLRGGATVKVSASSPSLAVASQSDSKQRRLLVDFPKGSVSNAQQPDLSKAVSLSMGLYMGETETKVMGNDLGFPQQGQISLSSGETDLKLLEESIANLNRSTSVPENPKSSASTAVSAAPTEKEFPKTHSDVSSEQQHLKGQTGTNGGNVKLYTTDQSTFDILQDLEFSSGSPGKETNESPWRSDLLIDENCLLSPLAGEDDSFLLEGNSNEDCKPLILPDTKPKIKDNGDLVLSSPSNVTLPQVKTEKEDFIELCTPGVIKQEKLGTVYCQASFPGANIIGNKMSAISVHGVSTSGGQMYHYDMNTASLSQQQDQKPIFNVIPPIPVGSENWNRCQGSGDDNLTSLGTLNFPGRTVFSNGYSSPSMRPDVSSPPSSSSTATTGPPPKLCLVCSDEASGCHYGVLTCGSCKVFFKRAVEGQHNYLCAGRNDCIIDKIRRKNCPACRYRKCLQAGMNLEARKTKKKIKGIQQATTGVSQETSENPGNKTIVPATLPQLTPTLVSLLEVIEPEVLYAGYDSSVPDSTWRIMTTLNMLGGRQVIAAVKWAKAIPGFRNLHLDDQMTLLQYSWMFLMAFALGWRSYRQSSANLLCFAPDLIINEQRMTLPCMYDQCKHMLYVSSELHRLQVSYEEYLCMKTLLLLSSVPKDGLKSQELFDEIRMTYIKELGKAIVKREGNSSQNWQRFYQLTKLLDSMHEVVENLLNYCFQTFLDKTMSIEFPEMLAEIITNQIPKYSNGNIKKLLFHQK

[13] = target: T2, Muscarinic acetylcholine receptor M2 (Homo sapiens) (UniProt P08172); assay: Muscarinic M2 Eurofins-Panlabs radioligand binding assay; conditions: Compound concentration 10.0 uM
T2 sequence (whole entry): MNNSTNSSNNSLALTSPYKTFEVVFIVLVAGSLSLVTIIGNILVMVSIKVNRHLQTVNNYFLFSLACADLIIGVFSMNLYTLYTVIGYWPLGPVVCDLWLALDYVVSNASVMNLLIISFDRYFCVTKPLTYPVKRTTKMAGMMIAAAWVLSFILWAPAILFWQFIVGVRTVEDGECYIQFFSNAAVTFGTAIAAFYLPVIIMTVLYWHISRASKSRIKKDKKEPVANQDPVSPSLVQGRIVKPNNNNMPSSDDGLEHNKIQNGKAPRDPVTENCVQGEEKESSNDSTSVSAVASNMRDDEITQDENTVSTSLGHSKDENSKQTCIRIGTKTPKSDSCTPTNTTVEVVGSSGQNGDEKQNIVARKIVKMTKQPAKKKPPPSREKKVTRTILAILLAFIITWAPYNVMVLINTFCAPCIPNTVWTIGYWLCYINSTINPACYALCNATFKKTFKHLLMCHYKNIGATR

[14] = target: Muscarinic acetylcholine receptor M3 (Homo sapiens) (UniProt P20309); assay: Muscarinic M3 Eurofins-Panlabs radioligand binding assay; conditions: Compound concentration 10.0 uM
Rattus norvegicus [15] = organism: Rattus norvegicus; assay: Opiate, Non-Selective Eurofins-Panlabs radioligand binding assay; parameters: ligand concentration 1 nM; conditions: Compound concentration 10.0 uM
[16] = target: 5-hydroxytryptamine receptor 1B (Homo sapiens) (UniProt P28222); conditions: Compound concentration 10.0 uM
Sequence of 5-hydroxytryptamine receptor 1B (Homo sapiens) (P28222 whole entry): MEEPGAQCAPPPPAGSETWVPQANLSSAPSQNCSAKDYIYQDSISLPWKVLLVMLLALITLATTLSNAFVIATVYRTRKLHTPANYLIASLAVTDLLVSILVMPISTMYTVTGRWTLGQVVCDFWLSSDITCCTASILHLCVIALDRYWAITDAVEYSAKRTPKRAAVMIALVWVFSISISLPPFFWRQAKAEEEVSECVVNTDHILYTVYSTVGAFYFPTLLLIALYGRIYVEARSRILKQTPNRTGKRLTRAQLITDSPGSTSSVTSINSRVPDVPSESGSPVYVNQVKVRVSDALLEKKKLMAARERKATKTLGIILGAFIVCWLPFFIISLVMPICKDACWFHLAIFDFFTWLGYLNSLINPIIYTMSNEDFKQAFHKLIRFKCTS

[17] = target: Histamine H1 receptor (Homo sapiens) (UniProt P35367); conditions: Compound concentration 10.0 uM
[18] = target: Histamine H3 receptor (Homo sapiens) (UniProt Q9Y5N1); conditions: Compound concentration 10.0 uM
[19] = target: Alpha-2B adrenergic receptor (Homo sapiens) (UniProt P18089); conditions: Compound concentration 10.0 uM
Sequence of Alpha-2B adrenergic receptor (Homo sapiens) (P18089 whole entry): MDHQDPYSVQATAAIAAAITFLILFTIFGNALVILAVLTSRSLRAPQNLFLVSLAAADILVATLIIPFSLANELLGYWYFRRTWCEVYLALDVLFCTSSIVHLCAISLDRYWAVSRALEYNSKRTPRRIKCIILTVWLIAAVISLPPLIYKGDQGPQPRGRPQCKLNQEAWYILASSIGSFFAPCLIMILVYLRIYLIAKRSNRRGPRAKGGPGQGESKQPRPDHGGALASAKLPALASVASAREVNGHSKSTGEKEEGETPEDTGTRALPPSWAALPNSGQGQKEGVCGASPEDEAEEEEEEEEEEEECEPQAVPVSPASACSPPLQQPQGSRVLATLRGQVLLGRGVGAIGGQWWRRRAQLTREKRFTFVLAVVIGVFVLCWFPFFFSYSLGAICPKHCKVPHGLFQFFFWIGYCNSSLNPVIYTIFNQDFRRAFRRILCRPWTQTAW

[20] = target: Muscarinic acetylcholine receptor M5 (Homo sapiens) (UniProt P08912); conditions: Compound concentration 10.0 uM
Sequence of Muscarinic acetylcholine receptor M5 (Homo sapiens) (P08912 whole entry): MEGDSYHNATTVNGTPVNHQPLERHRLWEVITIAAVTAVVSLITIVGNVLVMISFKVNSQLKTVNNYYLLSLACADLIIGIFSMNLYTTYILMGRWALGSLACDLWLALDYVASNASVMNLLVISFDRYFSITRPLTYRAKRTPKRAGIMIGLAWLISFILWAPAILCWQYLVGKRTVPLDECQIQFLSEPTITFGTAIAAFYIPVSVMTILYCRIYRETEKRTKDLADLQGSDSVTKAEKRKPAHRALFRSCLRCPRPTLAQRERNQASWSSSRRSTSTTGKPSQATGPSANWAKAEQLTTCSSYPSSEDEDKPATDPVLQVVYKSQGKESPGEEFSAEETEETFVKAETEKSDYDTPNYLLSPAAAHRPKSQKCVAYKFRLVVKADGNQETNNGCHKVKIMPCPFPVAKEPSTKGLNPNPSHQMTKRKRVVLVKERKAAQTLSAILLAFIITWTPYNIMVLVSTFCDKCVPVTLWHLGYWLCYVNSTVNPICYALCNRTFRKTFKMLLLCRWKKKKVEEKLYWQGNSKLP

[21] = target: GABA-A receptor; anion channel (Rattus norvegicus) (UniProt O09028+P15431+P18506+P18508+P19969+P20236+P23574+P23576+P28471+P28473+P30191+P62813+P63079+P63138+Q91ZM7+Q9ES14); conditions: Compound concentration 10.0 uM
[22] = target: Adenosine receptor A1 (Homo sapiens) (UniProt P30542); conditions: Compound concentration 10.0 uM
[23] = target: Adenosine receptor A2a (Homo sapiens) (UniProt P29274); conditions: Compound concentration 10.0 uM
Sequence of Adenosine receptor A2a (Homo sapiens) (P29274 whole entry): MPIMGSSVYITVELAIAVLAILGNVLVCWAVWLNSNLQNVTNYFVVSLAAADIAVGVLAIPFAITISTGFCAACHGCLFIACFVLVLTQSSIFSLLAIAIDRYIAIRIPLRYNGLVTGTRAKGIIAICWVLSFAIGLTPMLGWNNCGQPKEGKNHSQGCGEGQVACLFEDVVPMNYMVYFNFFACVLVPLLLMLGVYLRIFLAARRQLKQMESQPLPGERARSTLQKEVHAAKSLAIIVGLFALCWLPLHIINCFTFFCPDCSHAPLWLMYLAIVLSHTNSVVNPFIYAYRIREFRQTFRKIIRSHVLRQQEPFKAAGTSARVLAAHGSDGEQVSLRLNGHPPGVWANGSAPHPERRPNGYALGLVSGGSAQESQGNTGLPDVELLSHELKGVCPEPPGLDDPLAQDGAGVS

[24] = target: Beta-2 adrenergic receptor (Homo sapiens, UniProt P07550); conditions: Compound concentration 10.0 uM
[25] = target: Endothelin receptor type B (Homo sapiens) (UniProt P24530); conditions: Compound concentration 10.0 uM
Sequence of Endothelin receptor type B (Homo sapiens) (P24530 whole entry): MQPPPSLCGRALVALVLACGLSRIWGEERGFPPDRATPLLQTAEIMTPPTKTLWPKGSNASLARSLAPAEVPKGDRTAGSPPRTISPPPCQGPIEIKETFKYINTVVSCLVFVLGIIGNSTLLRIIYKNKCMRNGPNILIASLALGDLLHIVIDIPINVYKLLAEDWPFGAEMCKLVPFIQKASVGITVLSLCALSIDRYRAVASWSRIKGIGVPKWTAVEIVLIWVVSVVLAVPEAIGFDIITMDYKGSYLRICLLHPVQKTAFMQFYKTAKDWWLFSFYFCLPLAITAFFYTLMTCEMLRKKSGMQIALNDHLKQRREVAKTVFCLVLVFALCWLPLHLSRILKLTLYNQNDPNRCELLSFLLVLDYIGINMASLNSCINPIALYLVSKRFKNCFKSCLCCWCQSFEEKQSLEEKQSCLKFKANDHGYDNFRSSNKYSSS

[26] = target: Sodium-dependent dopamine transporter (Homo sapiens, UniProt Q01959); conditions: Compound concentration 10.0 uM
Rattus norvegicus [27] = organism: Rattus norvegicus; conditions: Compound concentration 10.0 uM
[28] = target: Sodium-dependent noradrenaline transporter (Homo sapiens) (UniProt P23975); conditions: Compound concentration 10.0 uM
Sequence of Sodium-dependent noradrenaline transporter (Homo sapiens) (P23975 whole entry): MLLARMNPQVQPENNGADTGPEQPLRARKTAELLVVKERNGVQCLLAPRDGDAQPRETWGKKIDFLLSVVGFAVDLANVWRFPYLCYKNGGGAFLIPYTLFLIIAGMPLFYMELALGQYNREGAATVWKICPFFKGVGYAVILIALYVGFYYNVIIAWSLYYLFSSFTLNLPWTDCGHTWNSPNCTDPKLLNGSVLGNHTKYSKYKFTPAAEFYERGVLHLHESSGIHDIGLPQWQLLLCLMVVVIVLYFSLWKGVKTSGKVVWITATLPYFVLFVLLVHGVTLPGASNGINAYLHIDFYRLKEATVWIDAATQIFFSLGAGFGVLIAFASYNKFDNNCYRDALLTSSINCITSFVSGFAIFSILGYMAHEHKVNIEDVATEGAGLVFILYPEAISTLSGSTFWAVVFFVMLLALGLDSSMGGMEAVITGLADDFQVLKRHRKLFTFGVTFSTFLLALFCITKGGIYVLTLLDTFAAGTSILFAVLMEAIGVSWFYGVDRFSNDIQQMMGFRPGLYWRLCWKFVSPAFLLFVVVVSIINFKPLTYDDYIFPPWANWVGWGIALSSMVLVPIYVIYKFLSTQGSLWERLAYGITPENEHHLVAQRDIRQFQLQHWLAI

[29] = target: Beta-3 adrenergic receptor (Homo sapiens) (UniProt P13945); conditions: Compound concentration 10.0 uM
Sequence of Beta-3 adrenergic receptor (Homo sapiens) (P13945 whole entry, looked up): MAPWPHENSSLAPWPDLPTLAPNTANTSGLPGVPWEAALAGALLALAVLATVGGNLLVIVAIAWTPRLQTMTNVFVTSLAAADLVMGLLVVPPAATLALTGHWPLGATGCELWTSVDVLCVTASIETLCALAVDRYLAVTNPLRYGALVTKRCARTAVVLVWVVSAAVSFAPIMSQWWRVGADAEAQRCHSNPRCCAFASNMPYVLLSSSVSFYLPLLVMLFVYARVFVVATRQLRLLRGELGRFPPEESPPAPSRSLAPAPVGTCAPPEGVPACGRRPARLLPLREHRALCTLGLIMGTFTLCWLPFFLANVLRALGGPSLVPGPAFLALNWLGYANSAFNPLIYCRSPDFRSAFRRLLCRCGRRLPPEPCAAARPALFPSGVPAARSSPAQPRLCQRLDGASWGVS

[30] = target: Glutamate receptor 2 (Homo sapiens) (UniProt P42262); conditions: Rattus norvegicus; Compound concentration 10.0 uM
[31] = target: Growth hormone secretagogue receptor type 1 (Homo sapiens) (UniProt Q92847); conditions: Compound concentration 10.0 uM

| Structure (SMILES) | inhibition (Rattus norvegicus [1]) [%] | inhibition [2] [%] | inhibition (Rattus norvegicus [3]) [%] | inhibition at 60 min, 10 µM [4] | inhibition [5] [%] | inhibition [6] [%] | inhibition [7] [%] | inhibition [8] [%] | inhibition (Rattus norvegicus [9]) [%] | inhibition [10] [%] | inhibition [11] [%] | inhibition [12] [%] | inhibition [13] [%] | inhibition [14] [%] | inhibition (Rattus norvegicus [15]) [%] | inhibition [16] [%] | inhibition [17] [%] | inhibition [18] [%] | inhibition [19] [%] | inhibition [20] [%] | further results |
| --- | --- | --- | --- | --- | --- | --- | --- | --- | --- | --- | --- | --- | --- | --- | --- | --- | --- | --- | --- | --- | --- |
| Cc1cc(OC2CCS(=O)(=O)CC2)cc(C)c1-c1cccc(COc2ccc(CCC(=O)O)c(F)c2)c1 | 17 | 9 | -4 | 6% (not active) | 8 | 29 | 17 | 10 | 8 | -4 | 0 | 0 | 4 | 4 | -8 | 19.3 | 12 | 21.1 | 13.1 | 20.4 | inhibition [21]: 23.7%; inhibition [22]: -1%; inhibition [23]: 5%; inhibition [24]: 3%; inhibition [25]: 0%; inhibition [26]: 5%; inhibition (Rattus norvegicus [27]): -4%; inhibition [28]: 22%; inhibition [29]: 15%; inhibition [30]: 4%; inhibition [31]: 2% |
| Cc1cc(OC2CCS(=O)(=O)CC2)cc(C)c1-c1cccc(COc2ccc(C(=O)O)c(F)c2)c1 | 26 | 6 | 5 | -5% (not active) | -8 | 3 | 3 | 6 | 6 | 1 | -4 | 14 | -3 | 1 | 3 | 23.2 | -2.18 | 6.7 | -0.21 | -4.74 | inhibition [21]: 19.5%; inhibition [22]: -4%; inhibition [23]: 10%; inhibition [24]: -7%; inhibition [25]: 15%; inhibition [26]: -8%; inhibition (Rattus norvegicus [27]): 7%; inhibition [28]: 5%; inhibition [29]: -3%; inhibition [30]: -3%; inhibition [31]: -1% |

Reference: ChEMBL document CHEMBL5058642, “Data for DCP probe TP-051” (2022)
